Data reported in US20260078103A1, “ISOQUINOLONES AS PI3K INHIBITORS” (OnKure, Inc., priority 2022, published 2026).
Read-outs that look alike come from different tables or passages of the source.

Columns and labels:
Format in all cases: cell-based
[1] = tested on: T47D cells expressing mutant PI3Ka (H1047R); test: In vitro cell proliferation, T47D cells (CellTiter-Glo); conditions: inhibition of proliferation, read-out: Avg T-47D EC50
Experimental: (§1) In Vitro Cell Proliferation: Determination of EC50 Values for Inhibition of Proliferation in T47D Cells Expressing Mutant PI3Ka (H1047R) Mutation and SKBR3 Cells Express WT PI3Ka.
(§2) T47D or SKBR3 cells were trypsinized, resuspended in culture media and seeded onto assay ready plates. T47D culture media consisted of RPMI, 10% FBS and Insulin (0.2 units/mL). SKBR3 culture media consisted of McCoys 5a and 10% FBS. Cells were seeded at a density of 1,500 cells/well and dispensed in 50 μl onto 384 well assay ready plates (Corning, 89089-790). Assay ready plates had previously been stamped with 10-point dilutions of compounds of interest, as well as controls. The Echo655 is used to stamp plates at 40 nL of compound or DMSO. Cells were grown for 72 hours at 37° Celsius and 5% CO2. After 72 hours, cells were equilibrated at room temperature for 15 minutes. 30 μL of CellTiter-Glo reagent is added to the plate, which is then shaken for 30 minutes at temperature at 300-500 rpm. Cells are then read on an Envision plate reader. The percentage of inhibition of proliferation was calculated using the following formula: % Inhibition=100×(LumD−Lumsample)/(LumD−Lumlnh), where D is obtained from cells treated with 0.1% DMSO only; lnh is obtained from cells treated with 10 uM Alpelisib. The effective concentration achieving 50% inhibition of proliferation (EC50) is calculated by fitting the Curve using Xlfit (v5.3.1.3), equation 201: Y=Bottom+(Top−Bottom)/(1+10^((LogEC50−X)*HillSlope)).

[2] = tested on: SKBR3 cells express WT PI3Ka; test: In vitro cell proliferation, SKBR3 cells (CellTiter-Glo); conditions: inhibition of proliferation
Experimental: as §1, §2

[3] = tested on: phosphorylation of AKT (pAKT) in T47D cells expressing mutant PI3Ka (H1047R); test: In vitro cell pAKT (Ser473) HTRF, T47D cells; conditions: cellular pAKT, T47D cells, mutant PI3Ka (H1047R), 6 hours, read-out: Avg T-47D IC50
Experimental: (§3) In Vitro Cell pAKT: Determination of IC50 Values for Inhibition of Phosphorylation of AKT (pAKT) in T47D Cells Expressing Mutant PI3Ka (H1047R) Mutation and SKBR3 Cells Express WT PI3Ka.
(§4) T47D or SKBR3 cells were trypsinized, resuspended in culture media and seeded onto assay ready plates. T47D culture media consisted of RPMI, 10% FBS and Insulin (0.2 units/mL). SKBR3 culture media consisted of McCoy's 5a and 10% FBS. Cells were seeded at a density of 5000 cells/well and dispensed in 12.5 μL onto 384 well assay ready plates (Perkin Elmer, 6008238)). Assay ready plates had previously been stamped with 10-point dilutions of compounds of interest, as well as controls. The Echo655 is used to stamp plates at 12.5 nL of compound or DMSO. Cells were grown for 6 hours at 37° Celsius and 5% CO2. After 6 hours, 4 μL of Lysis buffer reagent was added to the plate, which was then centrifuged for 1 minute at 1000 rpm. Then the plate was incubated at room temperature for 30 minutes. After 30 minutes, 4 μL of antibody mix containing Eu Cryptate, d2 Cryptate, and detection buffer, was added to the plate. The plate was centrifuged for 1 minute at 1000 rpm and then incubated overnight at room temperature. The plate was read on an Envision plate reader using the HTRF protocol. The percentage of inhibition of AKT phosphorylation was calculated using the following formula: % Inhibition=100×(pAKTHC−pAKTSample)/(pAKTHC−pAKTLC)), where pAKTHC is obtained from cells treated with 0.1% DMSO only; PAKTLC is obtained from cells treated with 10 uM Alpelisib. The IC50 (concentration achieving 50% inhibition of pAKT) is calculated by fitting the Curve using XIfit (v5.3.1.3), equation 201: Y=Bottom+(Top−Bottom)/(1+10^((LogIC50−X)*HillSlope)).

[4] = tested on: phosphorylation of AKT (pAKT) in SKBR3 cells express WT PI3Ka; test: In vitro cell pAKT (Ser473) HTRF, SKBR3 cells; conditions: cellular pAKT
Experimental: as §3, §4

Row | Compound | EC50 ([1]; 72 hours) [µM] | EC50 ([2]; Homo sapiens, SK-BR-3, 72 h) [µM] | IC50 [3] [µM] | IC50 ([4]; Homo sapiens, SK-BR-3, 6 h) [µM] | EC50 ([2]; 72 hours) [µM] | IC50 ([4]; 6 hours) [µM] | EC50 ([1]; Homo sapiens, T47D, 72 h) [µM] | IC50 ([3]; Homo sapiens, T47D, 6 h) [µM]
1 | Cc1cc(C(C)Nc2ccccc2C(=O)O)c2cc(N3Cc4cccc(C(F)(F)F)c4C3)n(C)c(=O)c2c1 (single isomer, unassigned) [Example 92] | 0.5 to 2 | > 15 | 0.001 to 0.5 | > 15 | – | – | – | –
2 | Cc1cc(C(C)Nc2ccccc2C(=O)O)c2cc(N3Cc4cccc(C(F)(F)F)c4C3)n(C)c(=O)c2c1 (single isomer, unassigned) [Example 93] | 2 to 15 | – | > 15 | – | > 15 | > 15 | – | –
3 | Cc1cc(C(C)Nc2ccccc2C(=O)O)c2cc(N3CCC4(CCN(CC(F)(F)F)C4)CC3)n(C)c(=O)c2c1 (single isomer, unassigned) [Example 96] | 0.001 to 0.5 | – | 0.001 to 0.5 | > 15 | 2 to 15 | – | – | –
4 | Cc1cc(C(C)Nc2ccccc2C(=O)O)c2cc(N3CCC4(CCN(CC(F)(F)F)C4)CC3)n(C)c(=O)c2c1 (single isomer, unassigned) [Example 97] | 2 to 15 | – | 2 to 15 | – | > 15 | > 15 | – | –
5 | Cc1cc(C(C)Nc2ccccc2C(=O)O)c2cc(N3C[C@H]4CCCC[C@@H]4C3)n(C)c(=O)c2c1 (single isomer, unassigned) [Example 101] | – | > 15 | – | > 15 | – | – | > 15 | > 15
6 | Cc1cc(C(C)Nc2ccccc2C(=O)O)c2cc(N3Cc4cc(F)cc(F)c4C3)n(C)c(=O)c2c1 (single isomer, unassigned) [Example 102] | 2 to 15 | > 15 | > 15 | > 15 | – | – | – | –
7 | Cc1cc(C(C)Nc2ccccc2C(=O)O)c2cc(N3Cc4cc(F)cc(F)c4C3)n(C)c(=O)c2c1 (single isomer, unassigned) [Example 103] | 0.001 to 0.5 | – | 0.001 to 0.5 | – | > 15 | > 15 | – | –
8 | Cc1cc(C(C)Nc2ccccc2C(=O)O)c2cc(N3CCC(c4ccccc4)C3)n(C)c(=O)c2c1 (single isomer, unassigned) [Example 104] | 2 to 15 | – | > 15 | > 15 | 2 to 15 | – | – | –
9 | Cc1cc(C(C)Nc2ccccc2C(=O)O)c2cc(N3CCC(c4ccccc4)C3)n(C)c(=O)c2c1 (single isomer, unassigned) [Example 105] | 0.5 to 2 | – | 0.001 to 0.5 | – | > 15 | > 15 | – | –
10 | Cc1cc(C(C)Nc2ccccc2C(=O)O)c2cc(N3C[C@@H]4CN(CC(F)(F)F)C[C@H]4C3)n(C)c(=O)c2c1 (single isomer, unassigned) [Example 108] | 2 to 15 | – | > 15 | – | > 15 | > 15 | – | –

Next, values leading:

Row | EC50 ([1]; 72 hours) [µM] | EC50 ([2]; Homo sapiens, SK-BR-3, 72 h) [µM] | IC50 [3] [µM] | IC50 ([4]; Homo sapiens, SK-BR-3, 6 h) [µM] | EC50 ([2]; 72 hours) [µM] | IC50 ([4]; 6 hours) [µM] | EC50 ([1]; Homo sapiens, T47D, 72 h) [µM] | IC50 ([3]; Homo sapiens, T47D, 6 h) [µM] | Compound
11 | 0.001 to 0.5 | > 15 | 0.001 to 0.5 | > 15 | – | – | – | – | Cc1cc(C(C)Nc2ccccc2C(=O)O)c2cc(N3C[C@@H]4CCCC[C@H]4C3)n(C)c(=O)c2c1 (single isomer, unassigned) [Example 100]
12 | 2 to 15 | > 15 | > 15 | > 15 | – | – | – | – | Cc1cc(C(C)Nc2ccccc2C(=O)O)c2cc(N3Cc4ccncc4C3)n(C)c(=O)c2c1 (single isomer, unassigned) [Example 106]
13 | 0.001 to 0.5 | – | 0.001 to 0.5 | – | > 15 | > 15 | – | – | Cc1cc(C(C)Nc2ccccc2C(=O)O)c2cc(N3Cc4ccncc4C3)n(C)c(=O)c2c1 (single isomer, unassigned) [Example 107]
14 | 0.001 to 0.5 | – | 0.001 to 0.5 | – | 2 to 15 | > 15 | – | – | Cc1cc(C(C)Nc2ccccc2C(=O)O)c2cc(N3C[C@@H]4CN(CC(F)(F)F)C[C@H]4C3)n(C)c(=O)c2c1 (single isomer, unassigned) [Example 109]
15 | 2 to 15 | – | > 15 | – | 2 to 15 | > 15 | – | – | Cc1cc(C(C)Nc2ccccc2C(=O)O)c2cc(N3CCC4(CCN(CC(F)(F)F)CC4)CC3)n(C)c(=O)c2c1 (single isomer, unassigned) [Example 110]
